Tested on: algae (Chlamydomonas, Scenedesumus, Actinastrum, Ulothrix, Oscillatoria, Spirogyra, Pleurotaenium, Stichoccus and Chlorella)
Test: Hydroponic Culture Test No. 1: algae disks immersed in test nutrient solutions, visual examination of algae growth
Assay type: cell-based, algae collected from hydroponic culture of tomato plants
Design: key: +: Algae growth was clearly observed; −: Algae growth was not observed
Settings: 7 days, 250° C., continuous light 2500 lux
Protocol: Algae which grew in hydroponic culture of tomato plants inside a greenhouse provided with a hydroponic culture system were collected. A control nutrient solution was prepared by dissolving in 1 liter of water 0.625 g, 0.417 g, 0.042 g and 0.029 g respectively of Otsuka House Nos. 1, 2, 3 and 5 (tradenames of products by Otsuka Chemical Co., Ltd.) Identified in the collected algae were the following nine kinds: Chlamydomonas, Scenedesumus, Actinastrum, Ulothrix, Oscillatoria, Spirogyra, Pleurotaenium, Stichoccus and Chlorella.
The algae thus collected were filtered by using a filtering net with opening diameter of 53 μm. After the filtrate was buried inside the aforementioned control nutrient solution containing agar by 0.8 weight %, disks were cut out therefrom by means of a cork borer. Test nutrient solutions which were individually prepared by adding indoleacetic acid, 3-indole propionic acid or 3-(3-indolyl) butyric acid shown by Formula 1 at different concentrations to the control nutrient solution, and after these disks were immersed individually in these test nutrient solutions for 7 days at […] under a continuous illumination of light at 2500 lux, the growth of algae was visually examined.

Compound | growth of algae (visual) (Concentration 0.1 mg/liter) | growth of algae (visual) (Concentration 0.5 mg/liter) | growth of algae (visual) (Concentration 1 mg/liter) | growth of algae (visual) (Concentration 5 mg/liter) | growth of algae (visual) (Concentration 10 mg/liter) | growth of algae (visual) (Concentration 25 mg/liter) | growth of algae (visual) (Concentration 50 mg/liter)
O=C(O)Cc1c[nH]c2ccccc12 [IAA, indoleacetic acid] | + | + | + | + | + | + | +
CC(CC(=O)O)c1c[nH]c2ccccc12 (stereo not drawn) [IBA, 3-(3-indolyl) butyric acid] | + | + | + | + | − | − | −
O=C(O)CCc1c[nH]c2ccccc12 [IPA, 3-indole propionic acid] | + | + | + | + | + | + | +
